From patent publication US12404241B2 (Celgene Corporation, priority 2018, dated 2025) come the findings set out here.

Where only a bound is given, the exact number is not on record here.

This assay concerns the target T1, AR (Homo sapiens, UniProt P10275).
T1 construct: endogenous in cells; host or cells: VCaP cells
T1 sequence (P10275 1-920): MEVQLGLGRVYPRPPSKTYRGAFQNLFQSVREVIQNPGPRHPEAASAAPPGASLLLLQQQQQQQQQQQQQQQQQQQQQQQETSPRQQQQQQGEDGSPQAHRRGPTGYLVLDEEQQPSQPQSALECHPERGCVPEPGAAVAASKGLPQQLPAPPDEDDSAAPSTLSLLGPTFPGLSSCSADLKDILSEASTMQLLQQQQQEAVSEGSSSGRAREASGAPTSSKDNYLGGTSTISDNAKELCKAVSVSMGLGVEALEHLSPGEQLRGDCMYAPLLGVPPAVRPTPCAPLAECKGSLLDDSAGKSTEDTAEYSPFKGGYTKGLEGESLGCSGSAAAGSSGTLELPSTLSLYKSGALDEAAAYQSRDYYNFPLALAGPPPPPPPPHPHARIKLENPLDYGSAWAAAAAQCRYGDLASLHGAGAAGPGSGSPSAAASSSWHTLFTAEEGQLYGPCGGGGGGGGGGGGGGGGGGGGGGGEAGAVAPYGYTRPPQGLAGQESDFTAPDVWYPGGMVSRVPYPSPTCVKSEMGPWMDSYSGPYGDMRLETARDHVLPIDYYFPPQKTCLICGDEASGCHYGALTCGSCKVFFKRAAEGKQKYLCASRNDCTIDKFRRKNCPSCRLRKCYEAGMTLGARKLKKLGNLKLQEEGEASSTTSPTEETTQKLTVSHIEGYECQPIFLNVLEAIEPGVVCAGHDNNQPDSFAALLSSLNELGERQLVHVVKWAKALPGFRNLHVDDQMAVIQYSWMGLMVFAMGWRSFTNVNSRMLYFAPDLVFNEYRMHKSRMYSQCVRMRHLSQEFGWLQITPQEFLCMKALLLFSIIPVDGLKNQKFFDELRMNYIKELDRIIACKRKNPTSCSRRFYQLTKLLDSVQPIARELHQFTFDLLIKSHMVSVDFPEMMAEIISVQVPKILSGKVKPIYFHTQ
As to the kind of experiment: VCAP AR Degradation Assay. It counts as cell-based. As to conditions: for Y (AR degradation efficiency, % of DMSO control): class symbols *; for DC50: class symbols A-C, read-out: DC50. The gist of the method:
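Compounds were plated as 10-point 1:3 series reaching 5 μM final, then VCaP cells were seeded onto them and incubated 24 h at 37 °C. Cells were lysed cold, and total AR was measured by sandwich ELISA relative to 0.1% DMSO wells.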

With `CCc1cc(N2C(=S)N(c3ccc(C#N)c(C(F)(F)F)c3)C(=O)C2(C)C)ccc1OCCN1CCN(C(C)(C)C(=O)Nc2cc(Cl)cc(NC3CCC(=O)NC3=O)c2)CC1` (stereo not shown) [Example 133, N-(3-chloro-5-(2,6-dioxopiperidin-3-ylamino)phenyl)-2-(4-(2-(4-(3-(4-cyano-3-(trifluoromethyl)phenyl)-5,5-dimethyl-4-oxo-2-thioxoimidazolidin-1-yl)-2-ethylphenoxy)ethyl)piperazin-1-yl)-2-methylpropanamide], the “Y (AR degradation efficiency, % of DMSO control)” value is “** (25%<Y<=35%)” and the DC50 lay in the range of 100 to 500 nM.

As to `CCc1cc(N2C(=S)N(c3cnc(C#N)c(C(F)(F)F)c3)C(=O)C23CCC3)ccc1OCCN1CCN(CC(=O)Nc2cccc(NC3CCC(=O)NC3=O)c2)C(C)(C)C1` (stereo not shown) [Example 134, 2-(4-(2-(4-(7-(6-cyano-5-(trifluoromethyl)pyridin-3-yl)-8-oxo-6-thioxo-5,7-diazaspiro[3.4]octan-5-yl)-2-ethylphenoxy)ethyl)-2,2-dimethylpiperazin-1-yl)-N-(3-(2,6-dioxopiperidin-3-ylamino)phenyl)acetamide], the “Y (AR degradation efficiency, % of DMSO control)” value was “* (0<Y<=25%)” and the DC50 is below 100 nM.

As for `C[C@@H]1CN(CCOc2ccc(N3C(=S)N(c4ccc(C#N)c(C(F)(F)F)c4)C(=O)C3(C)C)cc2CCF)CCN1CC(=O)Nc1cc(Cl)cc(NC2CCC(=O)NC2=O)c1` (stereo partly drawn) [Example 135, N-(3-chloro-5-(2,6-dioxopiperidin-3-ylamino)phenyl)-2-((R)-4-(2-(4-(3-(4-cyano-3-(trifluoromethyl)phenyl)-5,5-dimethyl-4-oxo-2-thioxoimidazolidin-1-yl)-2-(2-fluoroethyl)phenoxy)ethyl)-2-methylpiperazin-1-yl)acetamide], the “Y (AR degradation efficiency, % of DMSO control)” value was “* (0<Y<=25%)” and the DC50 was below 100 nM.

With `CC1(C)C(=O)N(c2ccc(C#N)c(C(F)(F)F)c2)C(=S)N1c1ccc(OCCN2CCN(CC(=O)Nc3cc(Cl)cc(NC4CCC(=O)NC4=O)c3)CC2)c(CCF)c1` (stereo not shown) [Example 136, N-(3-chloro-5-(2,6-dioxopiperidin-3-ylamino)phenyl)-2-(4-(2-(4-(3-(4-cyano-3-(trifluoromethyl)phenyl)-5,5-dimethyl-4-oxo-2-thioxoimidazolidin-1-yl)-2-(2-fluoroethyl)phenoxy)ethyl)piperazin-1-yl)acetamide], the “Y (AR degradation efficiency, % of DMSO control)” value is “* (0<Y<=25%)” and the DC50 was below 100 nM.

For the molecule `CCc1cc(N2C(=S)N(c3cnc(C#N)c(C(F)(F)F)c3)C(=O)C2(C)C)ccc1OCCN1CCN(CC(=O)Nc2cccc(N[C@H]3CCC(=O)NC3=O)c2)[C@H](C)C1` [Example 137, 2-((R)-4-(2-(4-(3-(6-cyano-5-(trifluoromethyl)pyridin-3-yl)-5,5-dimethyl-4-oxo-2-thioxoimidazolidin-1-yl)-2-ethylphenoxy)ethyl)-2-methylpiperazin-1-yl)-N-(3-((S)-2,6-dioxopiperidin-3-ylamino)phenyl)acetamide], the “Y (AR degradation efficiency, % of DMSO control)” value is “* (0<Y<=25%)” and the DC50 was below 100 nM.

As for `CCc1cc(N2C(=S)N(c3cnc(C#N)c(C(F)(F)F)c3)C(=O)C2(C)C)ccc1OCCN1CCN(CC(=O)Nc2cccc(N[C@@H]3CCC(=O)NC3=O)c2)[C@H](C)C1` [Example 138, 2-((R)-4-(2-(4-(3-(6-cyano-5-(trifluoromethyl)pyridin-3-yl)-5,5-dimethyl-4-oxo-2-thioxoimidazolidin-1-yl)-2-ethylphenoxy)ethyl)-2-methylpiperazin-1-yl)-N-(3-((R)-2,6-dioxopiperidin-3-ylamino)phenyl)acetamide], the “Y (AR degradation efficiency, % of DMSO control)” value is given as “* (0<Y<=25%)” and the DC50 is below 100 nM.

Consider `CCc1cc(N2C(=S)N(c3ccc(C#N)c(C(F)(F)F)c3)C(=O)C2(C)C)ccc1OCCN1CCN(C2(C(=O)Nc3cccc(NC4CCC(=O)NC4=O)c3)CC2)CC1` (stereo not shown) [Example 139, 1-(4-(2-(4-(3-(4-cyano-3-(trifluoromethyl)phenyl)-5,5-dimethyl-4-oxo-2-thioxoimidazolidin-1-yl)-2-ethylphenoxy)ethyl)piperazin-1-yl)-N-(3-(2,6-dioxopiperidin-3-ylamino)phenyl)cyclopropanecarboxamide], for which the “Y (AR degradation efficiency, % of DMSO control)” value was “* (0<Y<=25%)” and the DC50 is below 100 nM.

In the case of `C[C@@H]1CN(CCOc2ccc(N3C(=S)N(c4cnc(C#N)c(C(F)(F)F)c4)C(=O)C3(C)C)cc2CCF)CCN1CC(=O)Nc1cc(Cl)cc(NC2CCC(=O)NC2=O)c1` (stereo partly drawn) [Example 140, N-(3-chloro-5-(2,6-dioxopiperidin-3-ylamino)phenyl)-2-((R)-4-(2-(4-(3-(6-cyano-5-(trifluoromethyl)pyridin-3-yl)-5,5-dimethyl-4-oxo-2-thioxoimidazolidin-1-yl)-2-(2-fluoroethyl)phenoxy)ethyl)-2-methylpiperazin-1-yl)acetamide], the “Y (AR degradation efficiency, % of DMSO control)” value was “* (0<Y<=25%)” and the DC50 is below 100 nM.

Turning to `CC1(C)C(=O)N(c2ccc(C#N)c(C(F)(F)F)c2)C(=S)N1c1ccc(OCCN2CCN(CC(=O)Nc3cc(NC4CCC(=O)NC4=O)ccc3F)CC2)c(CCF)c1` (stereo not shown) [Example 141, 2-(4-(2-(4-(3-(4-cyano-3-(trifluoromethyl)phenyl)-5,5-dimethyl-4-oxo-2-thioxoimidazolidin-1-yl)-2-(2-fluoroethyl)phenoxy)ethyl)piperazin-1-yl)-N-(5-(2,6-dioxopiperidin-3-ylamino)-2-fluorophenyl)acetamide], the “Y (AR degradation efficiency, % of DMSO control)” value is reported as “* (0<Y<=25%)” and the DC50 is below 100 nM.

Turning to `C[C@@H]1CN(CCOc2ccc(N3C(=S)N(c4cnc(C#N)c(C(F)(F)F)c4)C(=O)C34CCC4)cc2CCF)CCN1CC(=O)Nc1cc(Cl)cc(NC2CCC(=O)NC2=O)c1` (stereo partly drawn) [Example 142, N-(3-chloro-5-(2,6-dioxopiperidin-3-ylamino)phenyl)-2-((R)-4-(2-(4-(7-(6-cyano-5-(trifluoromethyl)pyridin-3-yl)-8-oxo-6-thioxo-5,7-diazaspiro[3.4]octan-5-yl)-2-(2-fluoroethyl)phenoxy)ethyl)-2-methylpiperazin-1-yl)acetamide], the “Y (AR degradation efficiency, % of DMSO control)” value is on record as “* (0<Y<=25%)” and the DC50 was below 100 nM.

With `C[C@@H]1CN(CCOc2ccc(N3C(=S)N(c4ccc(C#N)c(C(F)(F)F)c4)C(=O)C34CCC4)cc2CCF)CCN1CC(=O)Nc1cc(Cl)cc(NC2CCC(=O)NC2=O)c1` (stereo partly drawn) [Example 143, N-(3-chloro-5-(2,6-dioxopiperidin-3-ylamino)phenyl)-2-((R)-4-(2-(4-(7-(4-cyano-3-(trifluoromethyl)phenyl)-8-oxo-6-thioxo-5,7-diazaspiro[3.4]octan-5-yl)-2-(2-fluoroethyl)phenoxy)ethyl)-2-methylpiperazin-1-yl)acetamide], the “Y (AR degradation efficiency, % of DMSO control)” value is on record as “* (0<Y<=25%)” and the DC50 is below 100 nM.

In the case of `CCc1cc(N2C(=S)N(c3cnc(C#N)c(C(F)(F)F)c3)C(=O)C2(C)C)ccc1OCCN1CCN(CC(=O)Nc2cc(Cl)cc(NC3CCC(=O)NC3=O)c2)[C@H](C)C1` (stereo partly drawn) [Example 144, N-(3-chloro-5-(2,6-dioxopiperidin-3-ylamino)phenyl)-2-((R)-4-(2-(4-(3-(6-cyano-5-(trifluoromethyl)pyridin-3-yl)-5,5-dimethyl-4-oxo-2-thioxoimidazolidin-1-yl)-2-ethylphenoxy)ethyl)-2-methylpiperazin-1-yl)acetamide], the “Y (AR degradation efficiency, % of DMSO control)” value is “* (0<Y<=25%)” and the DC50 is below 100 nM.

Consider `CCc1cc(N2C(=S)N(c3cnc(C#N)c(C(F)(F)F)c3)C(=O)C2(C)C)ccc1OCCN1CCN(CC(=O)Nc2cc(Cl)cc(NC3CCC(=O)NC3=O)c2)[C@H](C)C1` (stereo partly drawn) [Example 145, N-(3-chloro-5-(2,6-dioxopiperidin-3-ylamino)phenyl)-2-((R)-4-(2-(4-(3-(6-cyano-5-(trifluoromethyl)pyridin-3-yl)-5,5-dimethyl-4-oxo-2-thioxoimidazolidin-1-yl)-2-ethylphenoxy)ethyl)-2-methylpiperazin-1-yl)acetamide], for which the “Y (AR degradation efficiency, % of DMSO control)” value is “* (0<Y<=25%)” and the DC50 is below 100 nM.

For the molecule `CCc1cc(N2C(=S)N(c3ccc(C#N)c(C(F)(F)F)c3)C(=O)C2(C)C)ccc1OCCN1C[C@H](C)N(CC(=O)Nc2cccc(NC3CCC(=O)NC3=O)c2)[C@@H](C)C1` (stereo partly drawn) [Example 146, 2-((2S,6S)-4-(2-(4-(3-(4-cyano-3-(trifluoromethyl)phenyl)-5,5-dimethyl-4-oxo-2-thioxoimidazolidin-1-yl)-2-ethylphenoxy)ethyl)-2,6-dimethylpiperazin-1-yl)-N-(3-(2,6-dioxopiperidin-3-ylamino)phenyl)acetamide], the “Y (AR degradation efficiency, % of DMSO control)” value is on record as “* (0<Y<=25%)” and the DC50 is below 100 nM.
